From PubChem BioAssay (NCI)
“And” between values parts separate entries of the source, which are not always exact repeats. Identical values can stand only once.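 Each compound was tested at five concentrations against cells in 96-well plates for 48 hours. GI50 is the concentration that inhibits growth by half. TGI is the concentration that stops growth completely.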

The compounds below were run on MDA-MB-468 breast (assay: inhibition of tumour cell growth, NCI panel, 48 h).

Going from `CN(C)CCN1C(=O)c2cccc3c(N)ccc(c23)C1=O` to `COc1ccc2c(c1)C(=O)c1c-2c(OCCN(C)C)nc2cc(OC)ccc12`, the GI50 falls from 8400 nM to 1870 nM (4.5-fold).

`C=CC[N+]1(CCO)CCN=C1CCCCCCCCCCCCC` (stereo unspecified) and `C=CC(=O)NCCOc1cccc(Nc2cc(NCCCNC(=O)C3CCC3)c(Br)cn2)c1` are within 1.5-fold of each other in GI50: 1180 nM for the first, 1420 nM for the second.

Going from `COc1cc2cn3c4ccc(O)cc4nc(N)c3c2cc1OC` to `COc1cc(-c2nc(-c3nnc(-c4ccc(F)c(Cl)c4)o3)c3ccccn23)cc(OC)c1OC`, the GI50 rises from 313 nM to 3390 nM (11-fold).

`COc1ccc2[nH]c(-c3ccccc3)c(C=C(C#N)C#N)c2c1` and `COc1cc(-c2nc3ccccc3[nH]2)ccc1OCC(=O)N=Nc1c(O)[nH]c2ccc(Cl)cc12` are within 1.5-fold of each other in GI50: 2130 nM for the first, 1740 nM for the second.

Going from `COc1nc2c(cc1S(=O)(=O)c1ccccc1)CCc1c-2cnn1Cc1ccccc1` to `Cc1cc(O)c(C2=NN(c3ccc(S(N)(=O)=O)cc3)C(c3ccccc3O)C2)cc1Cl` (stereo unspecified), the GI50 falls from 6450 nM to 2260 nM (2.9-fold).

`Fc1c[c-]c(-c2ccccn2)c(F)c1.[CH3-].[Pt+2].c1ccc([PH+](c2ccccc2)c2ccccn2)cc1` and `C[C@H](C(=O)N[C@@H](Cc1ccc(-c2ccccc2)cc1)C(=O)NC1CC(C)(C)N(C)C(C)(C)C1)c1ccc(-c2ccccc2)c(F)c1` are within 1.5-fold of each other in GI50: 1400 nM for the first, 1240 nM for the second.

Compared with `O=C1c2ccc3c4c(ccc(c24)C(=O)N1CCCNCc1ccccc1)C(=O)N(CCCNCc1ccccc1)C3=O`, `O=C1CCC(N2C(=O)c3ccc(NS(=O)(=O)c4ccccc4OC(F)(F)F)cc3C2=O)C(=O)N1` (stereo unspecified) is 2.7-fold lower in GI50: 143 nM for the first, 53.6 nM for the second.

Going from `CCN(CC)S(=O)(=O)c1ccc(-c2nc(C(Cl)Cl)nc3cc(C)nn23)cc1` to `Cc1cc(Nc2cc(CN3CCOCC3)c3nc(C)c(Cc4ccc(Cl)cc4F)n3n2)n[nH]1`, the GI50 falls from 1720 nM to 441 nM (3.9-fold).

Compared with `COc1cc(-c2cc(-c3nc4cc(Cl)c(Cl)cc4[nH]3)[nH]n2)cc(OC)c1OC`, `COc1ccc(Cn2cc3c(c2-c2cc(OC)c(OC)c(OC)c2)CCCc2cnoc2-3)cc1N` is 6.5-fold lower in GI50: 3490 nM for the first, 540 nM for the second.

First: O=C1OCC2=C1C(c1cccc(C(F)(F)F)c1)c1cc3c(cc1N2CCO)OCO3 (stereo unspecified)
Second: COc1ccccc1-c1ccc2nc(NC(=O)Nc3cc(C(F)(F)F)cc(C(F)(F)F)c3)sc2c1
The GI50 of the first is 6.2-fold lower: 244 nM for the first, 1520 nM for the second.

Going from `COc1cc(/C=C2\CCCC3C2=Nc2ccccc2NC3c2cc(OC)c(OC)c(OC)c2)cc(OC)c1OC` (stereo unspecified) to `COc1ccc(C2=CC(c3ccc(Oc4ccnc5cc(Cl)ccc45)c(OC)c3)c3c(nc(OC)[nH]c3=O)N2)cc1` (stereo unspecified), the GI50 rises from 1710 nM to 5220 nM (3.1-fold).

Compared with `NC(=O)c1ccc2nc(-c3ccc(C4(N)CCC4)cc3)c(-c3ccccc3)n2n1`, `N=C(N)c1ccc(-c2ccc(-c3cncc4ccccc34)s2)cc1F` is 7.6-fold higher in GI50: 169 nM for the first, 1280 nM for the second.

Going from `COc1cc(OC)cc(-c2ccc(-c3ccc(C(=N)N)s3)s2)c1` to `NC(N)=Nc1ccc(Oc2cccc(Nc3ccc(Cl)c(C(F)(F)F)c3)c2)cc1`, the GI50 rises from 304 nM to 1480 nM (4.9-fold).

`FC(F)(F)c1[nH]ncc1-c1nc2c(N3CCCCC3)cc3[nH]ncc3c2c2c1CCCC2` and `Cc1c2cnccc2c(C)c2c1c1cc(C(=O)O)ccc1n2C` are within 1.5-fold of each other in GI50: 691 nM for the first, 837 nM for the second.

Going from `O=[N+]([O-])c1cccc(/C=C/c2ccccn2)c1` to `CCOC(=O)/C(=C/c1ccccc1)C(=O)c1ccccc1`, the GI50 rises from 2250 nM to 3770 nM (1.7-fold).

First: O=C(C[C@@]1(O)C(=O)Nc2c(Cl)ccc(Cl)c21)c1ccc(C2CC2)cc1
Second: CCN1CCC2(CC1)NC(=O)c1c(c3ccc(Cl)c(Cl)c3n1C)C2C#N (stereo unspecified)
The GI50 of the first is 6.1-fold lower: 221 nM for the first, 1350 nM for the second.

Going from `C[C@@H]1[C@H]2[C@H](C=C3[C@@H]4CC[C@H]5Cc6nc7c(nc6C[C@]5(C)[C@H]4C[C@@H](O)[C@@]32C)C[C@@H]2CC[C@H]3C4=C[C@@H]5O[C@@]6(CC[C@](C)(CO)O6)[C@@H](C)[C@@]5(O)[C@@]4(C)[C@H](O)C[C@@H]3[C@@]2(C)C7)O[C@]12CCC(C)(C)O2` to `COc1cccc2c1C(=O)c1c(O)c3c(c(O)c1C2=O)C[C@@](O)(C(=O)CO)C[C@@H]3OC1CC(OC(C)=O)C(OC(C)=O)C(C)O1` (stereo partly specified), the GI50 falls from 961 nM to 530 nM (1.8-fold).

First: O=C(CCc1ccco1)NC1CCN(CC2(c3ccc(Cl)cc3)CCC2)CC1
Second: OC(COc1cccc2ccccc12)CN1CCN(c2ccc(Cl)cc2)CC1 (stereo unspecified)
The GI50 of the first is 6.9-fold lower: 5280 nM for the first, 36400 nM for the second.

Compared with `CSC1=Nc2c(c(C)c(-c3ccccc3)n2CCCCl)C2=NC(=O)CN12`, `CN1C(=O)N(C)C2C1NN=c1s/c(=C\c3c[nH]c4ccccc34)c(=O)n12` (stereo unspecified) is 87-fold lower in GI50: 3130 nM for the first, 35.9 nM for the second.

First: CC(C)(C)CC(C)(C)N(CSc1ccc(Cl)cc1)CSc1ccc(Cl)cc1
Second: O=C(Nc1ccc(Cl)cc1F)c1cc(F)ccc1O
The GI50 of the first is 2.1-fold higher: 2610 nM for the first, 1270 nM for the second.

Going from `CCN1/C(=C/C=C/C=C/c2sc3ccccc3[n+]2CC)Sc2ccccc21` to `COc1ccc2c(O)c(/C=C3\N=Nc4ncccc43)oc2c1C[C@H]1CCNC[C@H]1F`, the GI50 rises from 117 nM to 246 nM (2.1-fold).

First: CC(C)(C)OC(=O)N1CC(Cn2cc(C(F)(F)F)c3c(Cl)ncnc32)C1
Second: Cc1cc(C(=O)N[C@@H](CCC(=O)O)C(=O)O)sc1CC[C@@H]1CNc2nc(N)[nH]c(=O)c2C1
The GI50 of the first is 55-fold higher: 1840 nM for the first, 33.3 nM for the second.

In the case of `COc1ccc(-c2nn(-c3ccc(NC(=O)Nc4ccc(Cl)c(Cl)c4)cc3)cc2-c2ccncc2)cc1Cl`, the GI50 is reported as 1610 nM.

Compared with `CN(C)CCN1C(=O)c2cccc3c(N)ccc(c23)C1=O`, `COc1ccc2c(c1)C(=O)c1c-2c(OCCN(C)C)nc2cc(OC)ccc12` is lower in TGI: over 25 µM for the first, 8.57 µM for the second.

Going from `C=CC[N+]1(CCO)CCN=C1CCCCCCCCCCCCC` (stereo unspecified) to `C=CC(=O)NCCOc1cccc(Nc2cc(NCCCNC(=O)C3CCC3)c(Br)cn2)c1`, the TGI rises from 2.55 µM to 5.08 µM (2-fold).

Compared with `COc1cc2cn3c4ccc(O)cc4nc(N)c3c2cc1OC`, `COc1cc(-c2nc(-c3nnc(-c4ccc(F)c(Cl)c4)o3)c3ccccn23)cc(OC)c1OC` is higher in TGI: 2.21 µM for the first, over 100 µM for the second.

First: COc1ccc2[nH]c(-c3ccccc3)c(C=C(C#N)C#N)c2c1
Second: COc1cc(-c2nc3ccccc3[nH]2)ccc1OCC(=O)N=Nc1c(O)[nH]c2ccc(Cl)cc12
The TGI of the first is 14-fold higher: 49.9 µM for the first, 3.45 µM for the second.

Compared with `COc1nc2c(cc1S(=O)(=O)c1ccccc1)CCc1c-2cnn1Cc1ccccc1`, `Cc1cc(O)c(C2=NN(c3ccc(S(N)(=O)=O)cc3)C(c3ccccc3O)C2)cc1Cl` (stereo unspecified) is lower in TGI: over 100 µM for the first, 5.7 µM for the second.

First: Fc1c[c-]c(-c2ccccn2)c(F)c1.[CH3-].[Pt+2].c1ccc([PH+](c2ccccc2)c2ccccn2)cc1
Second: C[C@H](C(=O)N[C@@H](Cc1ccc(-c2ccccc2)cc1)C(=O)NC1CC(C)(C)N(C)C(C)(C)C1)c1ccc(-c2ccccc2)c(F)c1
The TGI of the first is 1.6-fold higher: 4.27 µM for the first, 2.66 µM for the second.

First: O=C1c2ccc3c4c(ccc(c24)C(=O)N1CCCNCc1ccccc1)C(=O)N(CCCNCc1ccccc1)C3=O
Second: O=C1CCC(N2C(=O)c3ccc(NS(=O)(=O)c4ccccc4OC(F)(F)F)cc3C2=O)C(=O)N1 (stereo unspecified)
The TGI of the first is 7.5-fold lower: 0.285 µM for the first, 2.13 µM for the second.

First: CCN(CC)S(=O)(=O)c1ccc(-c2nc(C(Cl)Cl)nc3cc(C)nn23)cc1
Second: Cc1cc(Nc2cc(CN3CCOCC3)c3nc(C)c(Cc4ccc(Cl)cc4F)n3n2)n[nH]1
The TGI of the first is 1.5-fold higher: 4.44 µM for the first, 2.95 µM for the second.

Going from `COc1cc(-c2cc(-c3nc4cc(Cl)c(Cl)cc4[nH]3)[nH]n2)cc(OC)c1OC` to `COc1ccc(Cn2cc3c(c2-c2cc(OC)c(OC)c(OC)c2)CCCc2cnoc2-3)cc1N`, the TGI rises from 16.2 µM to over 100 µM.

Compared with `O=C1OCC2=C1C(c1cccc(C(F)(F)F)c1)c1cc3c(cc1N2CCO)OCO3` (stereo unspecified), `COc1ccccc1-c1ccc2nc(NC(=O)Nc3cc(C(F)(F)F)cc(C(F)(F)F)c3)sc2c1` is 2.5-fold higher in TGI: 2.16 µM for the first, 5.43 µM for the second.

Compared with `COc1cc(/C=C2\CCCC3C2=Nc2ccccc2NC3c2cc(OC)c(OC)c(OC)c2)cc(OC)c1OC` (stereo unspecified), `COc1ccc(C2=CC(c3ccc(Oc4ccnc5cc(Cl)ccc45)c(OC)c3)c3c(nc(OC)[nH]c3=O)N2)cc1` (stereo unspecified) is higher in TGI: 6.1 µM for the first, over 100 µM for the second.

Going from `NC(=O)c1ccc2nc(-c3ccc(C4(N)CCC4)cc3)c(-c3ccccc3)n2n1` to `N=C(N)c1ccc(-c2ccc(-c3cncc4ccccc34)s2)cc1F`, the TGI falls from 10.3 µM to 2.95 µM (3.5-fold).

Going from `COc1cc(OC)cc(-c2ccc(-c3ccc(C(=N)N)s3)s2)c1` to `NC(N)=Nc1ccc(Oc2cccc(Nc3ccc(Cl)c(C(F)(F)F)c3)c2)cc1`, the TGI rises from 1.16 µM to 3.48 µM (3-fold).

`FC(F)(F)c1[nH]ncc1-c1nc2c(N3CCCCC3)cc3[nH]ncc3c2c2c1CCCC2` and `Cc1c2cnccc2c(C)c2c1c1cc(C(=O)O)ccc1n2C` are within 1.5-fold of each other in TGI: 2.45 µM for the first, 3.07 µM for the second.

First: O=[N+]([O-])c1cccc(/C=C/c2ccccn2)c1
Second: CCOC(=O)/C(=C/c1ccccc1)C(=O)c1ccccc1
The TGI of the first is higher: over 100 µM for the first, 13.8 µM for the second.

Compared with `O=C(C[C@@]1(O)C(=O)Nc2c(Cl)ccc(Cl)c21)c1ccc(C2CC2)cc1`, `CCN1CCC2(CC1)NC(=O)c1c(c3ccc(Cl)c(Cl)c3n1C)C2C#N` (stereo unspecified) is 6.4-fold lower in TGI: 18.6 µM for the first, 2.91 µM for the second.

Going from `C[C@@H]1[C@H]2[C@H](C=C3[C@@H]4CC[C@H]5Cc6nc7c(nc6C[C@]5(C)[C@H]4C[C@@H](O)[C@@]32C)C[C@@H]2CC[C@H]3C4=C[C@@H]5O[C@@]6(CC[C@](C)(CO)O6)[C@@H](C)[C@@]5(O)[C@@]4(C)[C@H](O)C[C@@H]3[C@@]2(C)C7)O[C@]12CCC(C)(C)O2` to `COc1cccc2c1C(=O)c1c(O)c3c(c(O)c1C2=O)C[C@@](O)(C(=O)CO)C[C@@H]3OC1CC(OC(C)=O)C(OC(C)=O)C(C)O1` (stereo partly specified), the TGI falls from 20.7 µM to 5.06 µM (4.1-fold).

First: O=C(CCc1ccco1)NC1CCN(CC2(c3ccc(Cl)cc3)CCC2)CC1
Second: OC(COc1cccc2ccccc12)CN1CCN(c2ccc(Cl)cc2)CC1 (stereo unspecified)
The TGI of the first is lower: 18.9 µM for the first, over 100 µM for the second.

Compared with `CSC1=Nc2c(c(C)c(-c3ccccc3)n2CCCCl)C2=NC(=O)CN12`, `CN1C(=O)N(C)C2C1NN=c1s/c(=C\c3c[nH]c4ccccc34)c(=O)n12` (stereo unspecified) is higher in TGI: 13.1 µM for the first, over 86.8 µM for the second.

Going from `CC(C)(C)CC(C)(C)N(CSc1ccc(Cl)cc1)CSc1ccc(Cl)cc1` to `O=C(Nc1ccc(Cl)cc1F)c1cc(F)ccc1O`, the TGI falls from 12.4 µM to 5.18 µM (2.4-fold).

Going from `CCN1/C(=C/C=C/C=C/c2sc3ccccc3[n+]2CC)Sc2ccccc21` to `COc1ccc2c(O)c(/C=C3\N=Nc4ncccc43)oc2c1C[C@H]1CCNC[C@H]1F`, the TGI rises from 0.989 µM to 1.95 µM (2-fold).

`CC(C)(C)OC(=O)N1CC(Cn2cc(C(F)(F)F)c3c(Cl)ncnc32)C1` and `COc1ccc(-c2nn(-c3ccc(NC(=O)Nc4ccc(Cl)c(Cl)c4)cc3)cc2-c2ccncc2)cc1Cl` are within 1.5-fold of each other in TGI: 3.87 µM for the first, 4.48 µM for the second.

For `COc1ccc(-c2ccc3ncc4c(c3c2)n(-c2ccc(N3CCNCC3)c(C(F)(F)F)c2)c(=O)n4C)cn1`, the GI50 was < 10 nM and 3.18 nM.

For `COc1ccc(-c2ccc3ncc4c(c3c2)n(-c2ccc(N3CCNCC3)c(C(F)(F)F)c2)c(=O)n4C)cn1`, the TGI was 0.0194 µM and 0.0199 µM.
